Literature values as cited in patent US20190030061A1, “COBALAMIN COMPOSITIONS AND USE THEREOF FOR IMPROVING COGNITIVE FUNCTION” (NOVA SOUTHEASTERN UNIVERSITY, priority 2016, published 2019).

Test system: neuronal cells

| Substance | GSH levels | cysteine uptake |
| --- | --- | --- |
| Amyloid Beta | decrease | decrease |
| IGF1: insulin-like growth factor 1 | increased | stimulates |
